# Experimental data as given in US9045401B2, “Methods for treating or ameliorating a melanoma and killing melanoma cells” (THE REGENTS OF THE UNIVERSITY OF CALIFORNIA, priority 2007, dated 2015).
# How the values were obtained:
# [1] = solubility in aqueous media; format: physicochemical
# [2] = test system: Transgenic Tg(fli1:EGFP) zebrafish embryos; test: blood vessel formation in zebrafish; format: in vivo; conditions: for blood vessel growth and angiogenesis: 80 nM to 3 μM in the water, dose-dependent; for viability / acute toxicity to the fish: 24 hour period of the study
# Experimental: Zebrafish Experiments. Blood vessel formation in Zebrafish: Transgenic Tg(fli1:EGFP) zebrafish embryos were purchased from www.zfin.org as reported elsewhere (34). Adult fish and embryos were maintained according to “Zebrafish—A Practical Approach” (35). ScA compound in DMSO stock solution was diluted directly into the water and zebrafish intersegmental vessels were imaged using Nikon c1-si confocal microscope after the times specified. Raw image datasets were processed using IMARIS 3D™ image analysis software. All animal procedures were conducted in accordance with all appropriate regulatory standards under protocol #S06008 approved by the University of California San Diego (UCSD) Institutional Animal Care and Use Committee.
# [3] = partition from liquid phase into 100 nanometer liposomes (nanosomes); format: physicochemical
# Experimental: Preparation of Liposomes. Cholesterol:Dope:Dspc:Sca:Dspe-Mpeg (in 1:1:1:0.16:0.16 molar ratio) in chloroform were taken in 30 mL glass culture tubes, dried under a stream of nitrogen gas and vacuum-dessicated for a minimum of 6 h to remove any residual organic solvent. The dried lipid film was hydrated in sterile deionized water in a total volume of 1 mL for a minimum of 12 h. Liposomes were vortexed for 2-3 minutes to remove any adhering lipid film and sonicated in a bath sonicator (ULTRASONIK 28X™) for 2-3 minutes at room temperature to produce multilamellar vesicles (MLV). MLVs were then sonicated with a Ti-probe (using a BRANSON450™ sonifier at 100% duty cycle and 25 W output power) in an ice bath for 1-2 minutes to produce small unilamellar vesicles (SUVs) as indicated by the formation of a clear translucent solution. The solution was pressure filtered in sequence though 200 and then 100 nm nucelopore polycarbonate membranes to obtain liposome nanoparticles of 100 nm with a polydispersity factor of less than 0.1.
# [4] = test system: A-549 cells; test: cell toxicity studies by microscopy; format: cell-based, human; conditions: for cell state by microscopy: 24 h
# Experimental: FIG. 7 illustrates cell toxicity studies using A-549 cells and somocystinamide A (ScA); FIG. 7A illustrates microscopy images of cells with DMSO (1%) as a control at 24 h; FIG. 7B-ScA (WG-144) on A-549 cells at 100 nM 24 h; FIG. 7C-ScA (WG-144) on A549 cells 1.0 uM 24 h; FIG. 7D-ScA (WG-144) on A549 cells, 10 uM, 24 h. In FIG. 7A, the negative control (no ScA) the live cells are confluent.
# FIG. 28(B): A549 cells were fixed and costained using antibodies directed against ceramide (red channel) (Bars in A/B=[…]). Arrows indicate regions of “blebbing.” The nuclear compartment was visualized using DAPI to stain DNA (blue channel). The assessments were performed two hours after treatment with 300 nM ScA. FIG. 28(C): Immunoblot analysis of Jurkat cells was performed following treatment with 100 nM ScA. 25 μg of cell lysates was probed for caspases 8, 3 and 9 and for PARP and actin (loading control) as indicated. FIG. 28(D): Caspase 8 deficient (Casp 8), FADD deficient (FADD −) or parental Jurkat cells (Jurkat) were incubated with 50 or 300 nM for 6 hours and analyzed for the presence of apoptotic cells via FACs analysis of DNA content. Results shown are the mean and standard error of triplicate determinations. FIG. 28(E): A549 cells subjected to lentivirus-delivered shRNA-mediated knockdown of caspase 8, or treated with a scrambled shRNA lentivirus. Cells were then cultured in the presence of increasing doses of ScA, as indicated. Viability was measured by XTT assay after 72 hours, and normalized to controls not treated with drug. FIG. 28(F): similarly, the viability of neuroblastoma cultures deficient in caspase expression, or reconstituted for caspase 8 expression, was determined as for the A549 cells above. Both experiments are representative, with each point shown the mean±SE of triplicate wells.
# [5] = test system: A-549 lung cancer cells; test: XTT cell proliferation / viability assay; format: cell-based, human; conditions: for IC50: Homo sapiens
# Experimental: Cell lines. Cells and cell lines were maintained in either DMEM or RPMI supplemented with 10% FCS. The caspase-deficient NB7 neuroblastoma cells have been previously described (33). C8-deficient and reconstituted jurkat cells were provided by Dr. Steve Hedrick (UCSD). Silencing of Caspase-8 gene expression in the A549 cells was performed through the use of delivering shRNA in a lentiviral format. Briefly 293 T cells were transfected with caspase-8, (Open Biosystems) or scrambled (Addgene) shRNAs in pLK0.1 lentiviral vector, together with lentiviral packaging plasmids (PMLDL, VSV-G and RSV-REV) using fugene6. The ratio of target ShRNAs and packaging plasmids was ShRNA/PMLDL/VSV-G/RSV-REV, 10/10/6/4 μg. Lentiviral supernatants from 293 T cells were harvested after 48 hours and used to infect A549 cells. Viral constructs were incubated for 24 h with A549 cell lines prior to replacing media with selective media containing puromycin (1 μg/ml). The suppression of caspase-8 was verified by western blot.
# Cytotoxicity Assay. Cytotoxicity of ScA was assessed using the XTT cell proliferation assay. Briefly cells were plated on 96 well plates (5,000 per well) and incubated over night at 37° C. to allow for attachment and spreading. After 24 h, ScA was added from a DMSO stock, previously frozen at −80C as added directly from serial dilutions in DMSO at concentrations ranging from 100 uM to 100 fM. After 72 h, XTT (Aldrich Chemicals) was added to a final concentration of 250 ug/well. The plates were then incubated under standard tissue culture conditions until the control wells (DMSO) reached an OD value between 1.0-1.5. as measured at 450 nm using a microtiter plate reader. The cell viability-drug dilution profiles were obtained from sigma plots, and drug concentrations which inhibited growth by 50% were calculated from multiple runs. (IC50)
# [6] = test system: Jurkat cells; test: apoptosis of Jurkat cells by FACS analysis of DNA content; format: cell-based; conditions: 50 or 300 nM, 6 hours
# Experimental: FIG. 28(B): A549 cells were fixed and costained using antibodies directed against ceramide (red channel) (Bars in A/B=[…]). Arrows indicate regions of “blebbing.” The nuclear compartment was visualized using DAPI to stain DNA (blue channel). The assessments were performed two hours after treatment with 300 nM ScA. FIG. 28(C): Immunoblot analysis of Jurkat cells was performed following treatment with 100 nM ScA. 25 μg of cell lysates was probed for caspases 8, 3 and 9 and for PARP and actin (loading control) as indicated. FIG. 28(D): Caspase 8 deficient (Casp 8), FADD deficient (FADD −) or parental Jurkat cells (Jurkat) were incubated with 50 or 300 nM for 6 hours and analyzed for the presence of apoptotic cells via FACs analysis of DNA content. Results shown are the mean and standard error of triplicate determinations. […] Viability was measured by XTT assay after 72 hours, and normalized to controls not treated with drug. FIG. 28(F): similarly, the viability of neuroblastoma cultures deficient in caspase expression, or reconstituted for caspase 8 expression, was determined as for the A549 cells above. […]
# FACS analysis Cell viability was analyzed by flow cytometry following propidium iodide (PI) staining, as described elsewhere (37). […] The extent of apoptosis was determined by plotting PI fluorescence versus the forward scatter parameter, using CELL QUEST™ software.
smiles,measurement,setting,value
"C=CC/C=C/N(C)C(=O)CCCCCCCC/C=C/[C@H](CSSC[C@@H](/C=C/CCCCCCCCC(=O)N(C)/C=C/CC=C)NC(C)=O)NC(C)=O [somocystinamide A, Somocystinamide A]",solubility,[1],limited solubility
same,blood vessel growth and angiogenesis,[2],potently inhibited angiogenesis
same,blood vessel growth and angiogenesis,[2]; listed as ScA,blocked blood vessel growth and angiogenesis
same,viability / acute toxicity to the fish,[2],without acute toxicity
same,viability / acute toxicity to the fish,[2]; listed as ScA,all of the fish remained viable
same,interchelation of ScA within the nanosomes,[3],essentially complete within thirty minutes
same,"cell morphology, bright field microscopy","[4]; 100 nM ScA, FIG. 28A",induces a blebbing morphology
same,cell state by microscopy,[4]; 100 nM,transitioning to apoptosis
same,cell state by microscopy,[4]; 1.0 uM,in a state of apoptosis but no lysis
same,cell state by microscopy,[4]; 10 uM,in total lysis
same,IC50,"[5]; A549, anti-proliferative effect, FIG. 6",0.046 µM
same,IC50,"[5]; A549, percent cell viability, FIG. 16",0.114 µM
same,pro-apoptotic response induced by scA,"[5]; lentivirus shRNA silencing of caspase 8 or caspase 3, FIG. 24",attenuate the pro-apoptotic response
same,loss in sensitivity to ScA,"[5]; shRNA knockdown of caspase 8, FIG. 28E",five-fold
same,ScA-mediated killing,[6]; Jurkat cells lacking FADD,protected from ScA-mediated killing
same,apoptosis,[6]; caspase 8-deficient Jurkat cells compared to wild type,dramatically decreased
